Experimental data as given in patent EP0276583A1, “Imidazole derivatives, processes for their preparation and their fungicidal properties” (Instituto de Investigacion Y Desarrollo Quimico Biologico …, priority 1987, dated 1988).

Columns and labels:
souris Swiss = experiment: Acute oral toxicity in mice (Lichfield and Wilcoxon method); format: in vivo; conditions: mortality over 7 days
Source text: La toxicité aiguë des composés de l'invention a été déterminée par voie orale chez les souris Swiss des deux sexes, par la méthode de Lichfield et Wilcoxon. Des groupes de cinq souris de chaque sexe ont été traités par des doses croissantes du composé étudié et le taux de mortalité a été déterminé au cours des 7 jours suivant l'administration du produit.
On a trouvé les doses léthales (DL₅₀ en mg/kg) suivantes : […]

[1] = Solubility of the product in solvents; format: physicochemical; conditions: free base (oily product)
[2] = in benzène, éthanol, acétone, chloroforme
[3] = in eau, n-hexane, éther isopropylique, éther éthylique

SMILES	DL₅₀ (souris Swiss; souris femelle)	DL₅₀ (souris Swiss; souris mâle)	solubilité [1, 2]	solubilité [1, 3]
Brc1ccc(C(Cn2ccnc2)c2ccccc2)cc1 (centres unmarked) [Exemple 1, 1-[2-(4-bromophényl)-2-phényléthyl]-1H-imidazole]	375 (350-400) mg/kg	450 (400-475) mg/kg	soluble	insoluble
Fc1ccc(C(Cn2ccnc2)c2ccccc2)cc1 (centres unmarked) [Exemple 2, 1-[2-(4-fluorophényl)-2-phényl éthyl]-1H-imidazole]	465 (438-502) mg/kg	524 (457-538) mg/kg	soluble	insoluble
